Key:
Puccinia recondita = assay: Curative activity against wheat leaf rust caused by Puccinia recondita; format: in vivo; settings: individual active compound, 7 days
Method: (§1) The active compounds, separately or jointly, were prepared as a stock solution with 0.25% by weight of active compound in acetone or DMSO. 1% by weight of the emulsifier Uniperol® EL (wetting agent having emulsifying and dispersing action based on ethoxylated alkylphenols) was added to this solution, and the solution was diluted with water to the desired concentration.
Leaves of potted wheat seedlings of the cultivar “Kanzler” were dusted with spores of leaf rust (Puccinia recondita). For 24 hours, the pots were then placed at 20-22_C in a chamber with high atmospheric humidity (90-95%). During this time, the spores germinated and the germinal tubes penetrated into the leaf tissue. The next day, the infected plants were sprayed to runoff point with an aqueous suspension having the concentration of active compounds stated below. The suspension or emulsion was prepared as described above. After the spray coating had dried on, the test plants were cultivated in a greenhouse at 20-22_C and 65-70% relative atmospheric humidity for 7 days. The extent of rust fungus development on the leaves was then determined.
(§2) Evaluation was carried out by determining the infected leaf areas as a percentage. These percentages were converted into efficacies. The efficacy (W) was calculated as follows using Abbot's formula: W=(1−a/b)·100 • a corresponds to the fungal infection of the treated plants in % and • b corresponds to the fungal infection of the untreated (control) plants in %
(§3) An efficacy of 0 means that the infection level of the treated plants corresponds to that of the untreated control plants; an efficacy of 100 means that the treated plants were not infected.
(§4) The expected efficacies of the mixtures of the active compounds were determined using Colby's formula [R. S. Colby, Weeds 15, 20-22 (1967)] and compared with the observed efficacies. Colby's formula: E=x+y−x·y/100 • E expected efficacy, expressed as % of the untreated control, when using the mixture of the active compounds A and B at the concentrations a and b • x efficacy, expressed as % of the untreated control, when using active compound A at a concentration a • y efficacy, expressed as % of the untreated control, when using active compound B at a concentration b

Botrytis cinerea = assay: Activity against gray mold on bellpepper leaves caused by Botrytis cinerea, protective application; format: in vivo; settings: individual active compound, bellpepper seedlings, 5 days
Method: as §1, §2, §3, §4
Bellpepper seedlings of the cultivar “Neusiedler Ideal Elite” were, after 4-5 leaves were well developed, sprayed to runoff point with an aqueous suspension having the active compound concentration stated below. The next day, the treated plants were inoculated with a spore suspension of Botrytis cinerea which contained 1.7×10^6 spores/ml in a 2% strength aqueous biomalt solution. The test plants were then placed in a climatized chamber at 22-24_C and high atmospheric humidity. After 5 days, the extent of the fungus development on the leaves could be determined visually in %.
Evaluation was carried out analogously to example 1.

[1] = 4 ppm in the spray liquor, wheat seedlings cv. Kanzler

SMILES | Efficacy in % of the untreated control (Puccinia recondita; 0.25 ppm in the spray liquor, wheat seedlings) | Efficacy in % of the untreated control (Puccinia recondita; [1]) | Efficacy in % of the untreated control (Botrytis cinerea; 0.25 ppm in the spray liquor) | Efficacy in % of the untreated control (Botrytis cinerea; 1 ppm in the spray liquor) | Efficacy in % of the untreated control (Puccinia recondita; 1 ppm in the spray liquor, wheat seedlings) | Efficacy in % of the untreated control (Botrytis cinerea; 4 ppm in the spray liquor)
O=C(Nc1ccccc1-c1ccc(Cl)cc1)c1cccnc1Cl [II-5, boscalid, reference compound] | 0% | 0% | 0% | 0% | – | –
CC1CCN(c2c(-c3c(F)cc(F)cc3F)c(Cl)nc3ncnn23)CC1 [I, 5-chloro-7-(4-methylpiperidin-1-yl)-6-(2,4,6-trifluorophenyl)-[1,2,4]triazolo[1,5-a]pyrimidine] | – | 56% | 0% | 37% | 0% | 68%

From patent US7335661B2, “Fungicidal mixtures” (BASF Aktiengesellschaft, priority 2002, dated 2008)
